Measurements published in article PMC8498006 (Advances in Redox Research, 2021).

What was measured:
[1] = target: SARS-CoV-2 M^pro (MBP-tagged main protease) (Severe acute respiratory syndrome coronavirus 2, UniProt P0DTD1); assay: biochemical; settings: for suppressive effect on the protease activity at 20 µM: 20 µM phytochemical, 0.5 µM enzyme, 37°C 30 min
[2] = target: T1, SARS-CoV-2 M^pro (MBP-cleaved) (Severe acute respiratory syndrome coronavirus 2, UniProt P0DTD1); assay: Intact MS of M^pro after incubation with phytochemicals; format: binding; settings: 0.5 µM enzyme; for covalent adduct on M^pro by intact MS: 1 µM phytochemical, 37°C 30 min
[3] = target: T1, SARS-CoV-2 M^pro (MBP-cleaved); assay: Enzyme activity of MBP-cleaved M^pro with EGCG/myricetin, with or without GSH; format: biochemical; settings: 0.5 µM enzyme
[4] = target: T1, SARS-CoV-2 M^pro (MBP-cleaved); assay: Quinone detection on blotted membrane by redox-cycling; format: binding; settings: 2.5 µM phytochemical, 1 mM GSH
[5] = target: T1, SARS-CoV-2 M^pro (MBP-cleaved); assay: Free thiols in the enzyme by biotin incorporation; settings: iodoacetyl-LC-biotin labelling

Compound	suppressive effect on the protease activity at 20 µM [1]	IC50 [1] [µM]	covalent adduct on M^pro by intact MS [2]	further results
C[C@@H]1O[C@@H](OC[C@H]2O[C@@H](Oc3c(-c4ccc(O)c(O)c4)oc4cc(O)cc(O)c4c3=O)[C@H](O)[C@@H](O)[C@@H]2O)[C@H](O)[C@H](O)[C@H]1O [rutin, quercetin-3-O-rutinoside]	did not show suppressive effect	–	–	–
S=C=NCCc1ccccc1 [PEITC, phenethyl isothiocyanate]	–	14.2	–	–
Oc1cc(O)cc(/C=C/c2ccc(O)c(O)c2)c1 [piceatannol]	–	13.8	One or two molecule(s)	–
OC[C@H]1O[C@@H](Oc2cc3c(O)cc(O)cc3[o+]c2-c2ccc(O)c(O)c2)[C@H](O)[C@@H](O)[C@@H]1O.[Cl-] [cyanidine-3-glucoside, Cyanidine-3-glucoside chloride]	did not show suppressive effect	–	–	–
O=c1c(O)c(-c2cc(O)c(O)c(O)c2)oc2cc(O)cc(O)c12 [myricetin]	considerably inhibited	–	One or two molecule(s)	dose dependence of adduction by intact MS ([2]; 0–5 µM): dose-dependently observed; enzyme activity with increasing concentration ([3]; 0–5 µM, substrate reaction 15 min): decreased accordingly; enzyme activity loss in the presence of GSH ([3]; 2.5 µM phytochemical, 1 mM GSH, 30 min): canceled; quinone staining in the presence of GSH [4]: canceled; free thiols in the M^pro with increasing concentration [5]: decreased
COc1ccc(-c2cc(=O)c3c(O)c(OC)c(O[C@@H]4O[C@H](CO[C@@H]5O[C@@H](C)[C@H](O)[C@@H](O)[C@H]5O)[C@@H](O)[C@H](O)[C@H]4O)cc3o2)cc1 [pectolinarin]	did not show suppressive effect	–	–	–
myricitrin	–	–	covalent adducts were not observed	–
C=CCN=C=S [AITC, Allyl isothiocyanate]	–	33.3	–	–
O=c1c(O)cc([C@H]2Oc3cc(O)cc(O)c3C[C@H]2O)cc2c([C@H]3Oc4cc(O)cc(O)c4C[C@H]3O)cc(O)c(O)c12 [theaflavin]	considerably inhibited	6.1	One or two molecule(s)	–
O=c1cc(-c2ccccc2)oc2cc(O)c(O)c(O)c12 [baicalein]	–	–	covalent adducts were not observed	–
S=C=NCc1ccccc1 [BITC, benzyl isothiocyanate]	considerably inhibited	4.5	–	–
O=c1c(O)c(-c2ccc(O)cc2)oc2c(O)c(O)cc(O)c12 [herbacetin]	–	19.2	covalent adducts were not observed	–
O=c1c(O)c(-c2ccc(O)c(O)c2)oc2cc(O)cc(O)c12 [quercetin]	did not show suppressive effect	–	–	–
